Measurements published in publication PMC3501516, “Anti-Diabetic Efficacy and Impact on Amino Acid Metabolism of GRA1, a Novel Small-Molecule Glucagon Receptor Antagonist” (PLoS ONE, 2012).

How the values were obtained:
[1] = Pharmacokinetics / plasma GRA1 concentrations in hGCGR mice; format: in vivo; details: mouse
Procedure: Under control conditions, hGCGR mice were normoglycemic and treatment of these animals with GRA1 lowered blood glucose concentrations only moderately.
Figure 2 In vivo inhibition of hepatic ^125I-glucagon binding in the hGCGR mouse following (A) acute and (B) chronic dosing with GRA1. The data are mean (±SEM) percent reductions in liver ^125I-glucagon content measured (A) 1, 3, 5, and 8 h after a single oral dose of 3 mg/kg GRA1, and (B) after treatment for 30 days with control diet or food/drug admixtures that provided 3, 6, 10, or 30 mg/kg·day GRA1. Pharmacokinetic analysis performed during the experiment in (A) determined that mean plasma GRA1 concentrations were 0.5, 0.6, 0.5, and 0.7 µM at 1, 3, 5, and 8 h postdose, respectively. TEXT PRINTED IN THE PICTURE: (A) no label printed: Receptor occupancy (%): 64% (Time postdose (h): 1); Receptor occupancy (%): 71% (Time postdose (h): 3); Receptor occupancy (%): 65% (Time postdose (h): 5); Receptor occupancy (%): 73% (Time postdose (h): 8) | (B) no label printed: Receptor occupancy (%): 71% (Dose (mg/kg): 3); Receptor occupancy (%): 78% (Dose (mg/kg): 6); Receptor occupancy (%): 83% (Dose (mg/kg): 10); Receptor occupancy (%): 93% (Dose (mg/kg): 30)
Figure 3 Blunting of glucagon-induced blood glucose excursions by GRA1 treatment in the (A) hGCGR mouse and (B) rhesus monkey. In (A), mice (n = 8) were administered vehicle or 3, 10 or 30 mg/kg GRA1, then challenged 1 h later (time 0) by intraperitoneal injection of 15 µg/kg glucagon or vehicle. Pharmacokinetic analysis determined that these animals had mean plasma GRA1 concentrations of 0.4, 0.9, and 4.7 µM, respectively, at 1 h postdose. In (B), monkeys (n = 4) were administered 1 mg/kg GRA1 4 h prior to intramuscular injection of 15 µg/kg glucagon or vehicle. At 1 h postdose, the mean plasma GRA1 concentration in these animals was 0.2 µM. *p<0.05; **p<0.01; and ***p<0.001 vs. glucagon-treated control animals.

[2] = molecular target: T1, GLP-1R (GLP-1 receptor) (Homo sapiens, UniProt P43220); assay: Inhibition of GLP-1-stimulated cAMP production in CHO cells expressing GLP-1R; format: cell-based; details: human GLP-1R
T1 construct: expressed in transfected cells
T1 sequence (P43220 24-463): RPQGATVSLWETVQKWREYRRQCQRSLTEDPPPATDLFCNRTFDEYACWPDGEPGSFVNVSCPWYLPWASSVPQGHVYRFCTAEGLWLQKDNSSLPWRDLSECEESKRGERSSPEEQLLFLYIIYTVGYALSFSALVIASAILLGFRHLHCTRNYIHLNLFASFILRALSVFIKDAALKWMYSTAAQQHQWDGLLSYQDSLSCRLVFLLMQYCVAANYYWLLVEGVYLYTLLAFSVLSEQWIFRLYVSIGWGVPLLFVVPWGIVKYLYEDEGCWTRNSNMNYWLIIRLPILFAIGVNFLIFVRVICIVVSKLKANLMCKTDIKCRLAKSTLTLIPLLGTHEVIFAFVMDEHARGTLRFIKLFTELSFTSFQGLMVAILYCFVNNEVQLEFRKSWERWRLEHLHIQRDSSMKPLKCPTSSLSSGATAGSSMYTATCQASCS
From the text: Transfected Chinese hamster ovary (CHO) cell lines were acquired and maintained as previously described, [20]. These included separate cell lines stably expressing human GCGR (hGCGR), mouse GCGR, rhesus GGCR, glucose-dependent insulinotropic peptide receptor (GIPR), GLP-1 receptor (GLP-1R), pituitary adenylate cyclase-activating polypeptide receptor type 1 (PAC1R), and vasoactive adenylate cyclase-activating polypeptide receptor type 2 (VPAC2R). Inhibition of glucagon binding to hGCGR was assayed in cell membranes prepared from the line of CHO cells that expressed the hGCGR. Functional antagonism was assayed by measuring the production of cAMP in intact CHO cells stimulated by agonists specific for their cognate receptors (i.e., glucagon for GCGR-expressing cell lines, GIP for the GIPR-expressing line, etc.). Primary human hepatocytes were obtained from In Vitro Technologies (Baltimore, MD) and glucagon-stimulated glycogenolysis was studied in these as previously described.

With COc1ccc2cc(-c3cc(-c4cc(C(F)(F)F)ccc4F)nn3[C@@H](C)c3ccc(C(=O)NCCC(=O)O)cc3)ccc2c1 [GRA1, N-[4-((1S)-1-{3-(2-fluoro-5-trifluoromethylphenyl)-5-[6-methoxynaphth-2-yl]-1H-pyrazol-1-yl}ethyl)benzoyl]-β-alanine] the concentration at 1 h ([1]; oral, 3 mg/kg p.o., 1 h postdose (glucagon challenge)) was 400 nM, the concentration at 1 h ([1]; oral, 10 mg/kg p.o., 1 h postdose (glucagon challenge)) was 900 nM and the concentration at 1 h ([1]; oral, 30 mg/kg p.o., 1 h postdose (glucagon challenge)) was 4700 nM. It also gave a concentration at 1 h ([1]; single oral 3 mg/kg, 1 h postdose (occupancy experiment)) of 500 nM, a concentration at 3 h ([1]; single oral 3 mg/kg, 3 h postdose (occupancy experiment)) of 600 nM and a concentration at 5 h ([1]; single oral 3 mg/kg, 5 h postdose (occupancy experiment)) of 500 nM. It also gave a concentration at 8 h ([1]; single oral 3 mg/kg, 8 h postdose (occupancy experiment)) of 700 nM and an IC50 [2] of 7.9 µM.
